Test results taken from PMC10108392, “Rimonabant-Based Compounds Bearing Hydrophobic Amino Acid Derivatives as Cannabinoid Receptor Subtype 1 Ligands” (ACS Medicinal Chemistry Letters, 2023).
Entries after “also recorded” stand apart in the source; their conditions may differ.

Legend:
CB1R = molecular target: T1, CB1R (Rattus norvegicus, UniProt P20272); assay: [3H]WIN55,212-2 radioligand competition binding assay in rat brain membrane homogenate; settings: read-out: Ki [3H]WIN55,212-2 binding, 5 nM [3H]WIN55,212-2, ± SEM, n.b. = no binding of ligands was observed
T1 construct: Crude membrane fractions were prepared from the brain; from tissue; host or cells: Wistar rat whole brain, crude membrane fraction
Method: Our novel chemical compounds were tested in vitro for their binding ability, efficacy, and potency on CB1R in rat brain membrane homogenate (Table 2 and SI, Figure S1). CB1Rs are the most abundant G-protein coupled receptors in the rodent and mammalian brain; therefore, this is an appropriate model to characterize our ligands in a more physiological system.
In Vitro Biological Assays
Preparation of Brain Membrane Homogenates
Wistar rats were locally bred and handled according to the EU Directive 2010/63/EU and to the Regulations on Animal Protection (40/2013. (II. 14.) Korm. r.) of Hungary. Crude membrane fractions were prepared from the brain. Brains were quickly removed from the euthanized rats and directly put in an ice-cold 50 mM Tris-HCl buffer (pH 7.4). The collected tissue was then homogenized in 30 volumes (v/w) of an ice-cold buffer with a Braun Teflon-glass homogenizer at the highest rpm. The homogenate was centrifuged at 20,000 × g for 25 min, and the resulting pellet was suspended in the same volume of a cold buffer followed by incubation at 37 °C for 30 min to remove endogenous ligands. Centrifugation was then repeated. The final pellets were taken up in five volumes of a 50 mM Tris-HCl (pH 7.4) buffer containing 0.32 M sucrose and stored at -80 °C. Prior to the experiment, aliquots were thawed and centrifuged at 20,000 ×g for 25 min and then they were resuspended in 50 mM Tris-HCl (pH 7.4), homogenized with a Douncer, followed by the determination of the protein concentration by the method of Bradford. The membrane suspensions were immediately used either in radioligand binding experiments or in [35S]GTPγS functional assays.
Radioligand Competition Binding Assay
Binding experiments were performed at 30 °C for 60 min in a 50 mM Tris-HCl binding buffer (pH 7.4) containing 2.5 mM of EGTA, 5 mM of MgCl2 and 0.5 mg/mL of fatty acid-free BSA in plastic tubes in a total assay volume of 1 mL that contained 0.3-0.5 mg/mL of a membrane protein. Competition binding […]
ligands. […] The incubation […]
was terminated by diluting the samples with an ice-cold wash buffer (50 mM of Tris-HCl, 2.5 mM of EGTA, 5 mM of MgCl2, 0.5% fatty acid free BSA, pH 7.4), followed by repeated washing and rapid filtration through Whatman GF/B glass fiber filters (Whatman Ltd., Maidstone, UK) pre-soaked with 0.1% polyethyleneimine (30 min before the filtration). Filtration was performed with a 24-well Brandel Cell Harvester (Gaithersburg, MD, USA). Filters were air-dried and immersed into Ultima Gold MV scintillation cocktail, and then radioactivity was measured with a TRI-CARB 2100TR liquid scintillation analyzer (Packard, Perkin Elmer, Waltham, MA, USA). […]
The results of the competition binding studies are reported as means ± S.E.M. of at least three independent experiments each performed in duplicate. In competition binding studies, the inhibitory constants (Ki) were calculated from the inflection points of the displacement curves using non-linear least-square curve fitting and the Cheng-Prusoff equation, Ki= […]/(1 + [ligand]/Kd). […]

mice = assay: Feeding test (food intake); format: in vivo, mouse; settings: 10 mg/kg i.p., 1-h test, vs vehicle
Method: The tested compounds were injected i.p. (10 mg/kg), and after leaving for 30 min to allow the drug assimilation, mice were placed into individual cages with access to a predefined amount of their standard lab chow (2 g) for the 1-h test.
In Vivo Biological Assays
The international and national law and policies approved by Italian Ministry of Health were used to comply with all animal care and experimental procedures. Animal studies were advised in compliance with the ARRIVE guidelines and with the recommendations made by EU Directive 2010/63/EU for animal experiments and the Basel declaration including the 3Rs concept. CD-1 male mice (10-14 weeks of age, 25-30 g of weight) were bought from Charles River (Milan, Italy). Shortly after their arrival and for at least one week, they were kept in an animal care facility under controlled standard conditions of temperature (21 ± 1 °C), light (from 7:00 AM to 7:00 PM), and relative humidity (60 ± 10%). Access to drinking water and food was assured. All procedures were performed to decrease the number of animals used (n = 7 per group) and their distress.
The test was carried out as previously described. At 24 h before the start of a feeding test, all food was removed from the home cages of mice to be tested. The next day and at least 1 h before the feeding test began, the mice were transported to the laboratory. On test days, the animals were placed in the home cages for 30 min of drug assimilation, during which food was not available. Then compounds were intraperitoneally administered (10 mg/kg). Mice were transferred into transparent and individual plastic cages with thick white paper lining the bottom and access to a pre-measured amount of their regular lab chow (2 gr) for the 1-h test. At the end of 1 h, mice were repositioned into their home cage. The amount of food left in the trial cage, including crumbs, was measured, and the amount consumed was calculated.
Feeding trials normally happened on Tuesdays and Fridays between 12:00 and 14:00 h. […]

T1 sequence (P20272 whole entry): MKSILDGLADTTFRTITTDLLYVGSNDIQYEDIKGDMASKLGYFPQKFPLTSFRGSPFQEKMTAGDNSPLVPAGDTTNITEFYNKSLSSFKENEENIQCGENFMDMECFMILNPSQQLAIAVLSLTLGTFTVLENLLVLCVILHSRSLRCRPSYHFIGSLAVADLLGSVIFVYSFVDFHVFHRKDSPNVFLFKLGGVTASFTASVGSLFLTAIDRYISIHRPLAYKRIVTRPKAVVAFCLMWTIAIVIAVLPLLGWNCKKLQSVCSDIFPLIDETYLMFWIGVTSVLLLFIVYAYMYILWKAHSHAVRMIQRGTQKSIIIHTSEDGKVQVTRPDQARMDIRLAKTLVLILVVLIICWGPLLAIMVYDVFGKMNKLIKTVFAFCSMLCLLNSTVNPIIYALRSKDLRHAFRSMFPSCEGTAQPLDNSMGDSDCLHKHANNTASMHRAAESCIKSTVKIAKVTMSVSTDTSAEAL

In the case of `CNC(=O)[C@@H](NC(=O)c1nn(-c2ccc(Cl)cc2)c(-n2cccc2)c1C)C(C)(C)C` [Compound 34, RS2691-tLeu-NHCH3], the Ki (CB1R) is reported as 6.9 ± 1.8 nM and the food intake (mice) is reported as “increase food intake; also recorded: increased the food intake; also recorded: significant orexic effect”.
